From patent publication US8377934B2, “Use of stilbene derivatives for treatment and prevention of aquatic mold infections” (State of Israel, Ministry of Agriculture & Rural …, priority 2006, dated 2013) come the findings set out here.

Some results are limits rather than exact numbers.

Data set [1] has as its system Lake Kinneret water samples. The data set is described as follows: Delayed Fluorescent Excitation Spectroscopy (DFES) of natural phytoplankton. Format: cell-based. The settings on record: 100 mg/L; 4.6 μg/L prior to exposure. An excerpt:
The Delayed Fluorescent Excitation Spectroscopy (DFES) method was used for qualitative and quantitative assessment of the influence of Blankophor® BA on the natural population of phytoplankton, and on specific algae strains. Delayed fluorescence is a unique characteristic of photosynthetically active cells, as it is an outcome of recombination that takes place in the thylakoids in the dark (Yacobi Y. Z., V. Gerhardt, Y. Gonen-Zurgil, and A. Sukenik. 1998. Delayed fluorescence excitation spectroscopy: a rapid method for the qualitative and quantitative assessment of natural population of phytoplankton. Wat. Res. 00:1-6).
Samples from Lake Kinneret and pure cultures of Peridinium sp. and Microcystis sp. were exposed to Blankophor® BA (100 mg/L), for a few minutes and the concentration of chlorophyll-a was determined (in duplicate) according to the excitation spectrum examined (range from 400 to 730 nm). In addition, the exposed and non-exposed samples were assessed for carbon uptake with a ^14C technique.

The subject of data set [2] is ICR mice. The data set is described as follows: Intravenous maximal tolerated dose in mice. Format: in vivo. The settings on record: male ICR mice. On the procedure: Blankophor® BA was prepared at various concentrations in 5% dextrose and filter sterilized by passage through a sterile 0.2 μm pore size cellulose acetate filter (Schleicher & Schuell, Dassel, Germany). Male albino ICR mice (weight 30 g) were injected through the tail vein with various doses of Blankophor® BA. Each dosage form was administered intravenously as single bolus injection of 0.1 ml of the same dose every 10 min to a group of 10 mice until death was observed. The survival of mice that received the maximal tolerated dose (MTD) was monitored for 8 days.

In data set [3] the test system is Daphnia sp. Kind of data set: Toxicity to zooplankton (motility). Format: in vivo. The settings on record: 100 and 1,000 mg/L, 48 h. On the procedure:
Daphnia sp. is a small (0.2 to 5 mm in length) planktonic crustacean, commonly used as a model for aquatic toxicity.
Daphnia (˜1,000 […]/L water) was exposed to Blankophor® BA 100 and 1,000 mg/L). The experiment was carried out in covered flasks (100 ml/per flask), equipped with air supply. The flasks were incubated at room temperature for 48 h, and the Daphnia motility was recorded.

For the compound `O=S(=O)([O-])c1cc(Nc2nc(Nc3ccccc3)nc(N(CCO)CCO)n2)ccc1C=Cc1ccc(Nc2nc(Nc3ccccc3)nc(N(CCO)CCO)n2)cc1S(=O)(=O)[O-].[K+].[Na+]` [Blankophor® BA], the “total chlorophyll concentration (average)” value in data set [1] came out at 9.2 µg/L. For the same compound, the “maximal tolerated dose (MTD)” value in data set [2] is more than 1000 mg/kg. In addition, the “Daphnia motility versus non-exposed control” value in data set [3] was “no difference”.
